Test results as given in paper PMC4104761, “Identification of a novel lytic peptide for the treatment of solid tumours” (Genes & Cancer, 2014).

System: U87 cells
Assay: Comparison of peptide variants by crystal violet staining and light microscopy
Conditions: U87 cells; 7.5, 10, 15, 20 and 25 µg/ml; 3 hours incubation
Description: The sizes of the resulting in silico peptides varied from 10 to 30 amino acids. In order to facilitate their cellular internalisation, a TAT-HIV sequence was attached to the C-terminal ends. All peptides were […]. The peptide library was produced by Cambridge Peptides (Cambridge, UK). The peptides were then screened with the MTT (3-(4,5-dimethylthiazol-2-yl)-2,5-diphenyltetrazolium bromide) assay on U87 human glioma cells. Cellular morphology after peptide exposure was assessed by crystal violet staining and light microscopy. All experiments were performed in triplicate.
To increase the stability of the peptide, two further sub-formulations of the original formula (L-aa, containing only L-amino acids) were created: D-aa (retro inversed, (ri)), a peptide comprised of a backward sequence of the original in silico formula, yet made up solely of D-amino acids and an analogue peptide to original in silico peptide formula, comprised of D-amino acids. D-amino acids are highly resistant to protease mediated degradation and have a low immunogenic response. The respective peptide variants were tested in the following concentrations: 7.5, 10, 15, 20 and 25 µg/ml and incubated for 3 hours.

## Ac-YGRKKRRQRRRGKTLRVAKAIYKRYIE-NH2
  cytotoxic effect / potency by crystal violet staining: cytotoxic effect
